# What was measured:
# [1] = biological target: T1, human XIAP_BIR3 domain purified protein (Homo sapiens, UniProt P98170); test: XIAP binding inhibitory activity (HTRF, b-Smac ligand); conditions: for IC50: second symbol of cell, read-out: XIAP binding inhibition IC50 value
# T1 construct: purchased R & D
# Method: Human XIAP binding inhibitory activity was measured by the Homogeneous Time Resolved Fluorescence (HTRF) method with using commercially available human XIAP_BIR3 domain purified protein (R & D) and as a ligand a Smac N-terminal peptide (AVPIAQK (SEQ ID NO: 1)) (hereinafter referred to as “b-Smac”; Peptide Research Laboratories, Inc.) biotinylated at the C-terminus according to a conventional method.
# The HTRF method will be described in detail below.
# The test compound diluted with a reaction buffer (25 mM HEPES Buffer containing 100 mM NaCl, 0.1% BSA, and 0.1% triton X-100, pH 7.5) was added to a 384-well white shallow bottom plate (Greiner 784076) at 1 μL/well and flash centrifuged for 30 seconds. Subsequently, human XIAP_BIR3 domain purified protein was diluted with the reaction buffer to obtain a 90 nM sample diluent, and the resultant sample diluent was added to the above-mentioned white superficial plate at 4.5 μL/well and flash centrifuged for 30 seconds. Subsequently, b-Smac diluted to 90 nM with the reaction buffer was added to the above-mentioned white superficial plat at 4.5 μL/well and flash centrifuged for 30 seconds. A mixed solution of Anti-6 HIS-Cryptate (Eu^3+ Cryptate-conjugated mouse monoclonal antibody anti-6 Histidine; cisbio) and Streptavidin-XL^eat (Highgrade XL665-conjugated streptavidin; cisbio) both diluted 100-fold with HTRF detection buffer (cisbio) at a volume ratio of 1:1 was added to the above white superficial plate at 10 μL/well. After flash centrifuging the white shallow bottom plate for 30 seconds, the white shallow bottom plate was left at room temperature for 4 hours or more in the dark. The white superficial plate after being left was subjected to fluorescence intensity measurement (excitation wavelength: 320 nm, fluorescence wavelength: 665 nm and 615 nm) by EnVision (Perkin Elmer). The binding inhibition rate (%) was calculated based on the HTRF ratio in the presence of the test compound to the HTRF ratio in the absence of the test compound (fluorescence intensity at 665 nm/fluorescence intensity at 615 nm).
# The XIAP binding inhibition rate (%) of test compounds was evaluated.
# [2] = biological target: T2, IRAK-M (Homo sapiens, UniProt Q9Y616); test: IRAK-M binding inhibitory activity (KINOMEscan active site-dependent competitive assay); design: purchased Eurofins Discover X; conditions: for IC50: second symbol of cell, read-out: IRAK-M binding inhibition IC50 value; for remaining binding at 1 µM: concentration of the test compound 1 μM, first symbol of cell, read-out: IRAK-M binding inhibition activity % Ctrl
# T2 sequence (Q9Y616 1-596): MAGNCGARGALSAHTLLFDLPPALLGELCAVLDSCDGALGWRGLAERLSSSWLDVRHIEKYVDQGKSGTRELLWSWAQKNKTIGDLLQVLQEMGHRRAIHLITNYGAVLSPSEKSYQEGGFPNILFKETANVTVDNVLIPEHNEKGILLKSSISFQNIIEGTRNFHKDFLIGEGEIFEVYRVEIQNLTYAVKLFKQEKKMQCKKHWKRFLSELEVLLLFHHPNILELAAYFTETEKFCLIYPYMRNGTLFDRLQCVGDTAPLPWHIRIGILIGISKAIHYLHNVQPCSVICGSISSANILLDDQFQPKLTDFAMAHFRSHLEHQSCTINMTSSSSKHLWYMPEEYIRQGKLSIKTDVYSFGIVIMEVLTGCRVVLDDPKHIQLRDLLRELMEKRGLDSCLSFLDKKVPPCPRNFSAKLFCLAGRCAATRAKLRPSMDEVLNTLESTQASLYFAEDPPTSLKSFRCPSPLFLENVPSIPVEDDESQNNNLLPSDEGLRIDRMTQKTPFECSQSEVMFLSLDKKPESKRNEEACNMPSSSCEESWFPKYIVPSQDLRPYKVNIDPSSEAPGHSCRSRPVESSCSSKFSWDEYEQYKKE
# Outline: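 Readout given as % Ctrl, with DMSO as 100% and a control compound as 0%, scaling the test compound signal between them. Binding to human IRAK-M was assessed by KINOMEscan competition at the kinase active site.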
# T1 sequence (P98170 252-356 limits assumed): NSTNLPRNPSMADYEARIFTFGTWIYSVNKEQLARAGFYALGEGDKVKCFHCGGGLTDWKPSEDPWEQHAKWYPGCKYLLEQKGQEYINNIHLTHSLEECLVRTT
IC50 [1] [nM],remaining binding at 1 µM [2] [%],SMILES,also measured
< 300,,"Cc1cc2ccc(C(=O)N3CCN(C(=O)CN4C[C@@H](C)NC[C@@H]4COCCOCCOCCOc4cc(CN5CCC(Oc6ccnc7ccsc67)CC5)on4)CC3)cn2c1 [Example 18, 2-((2R,5R)-5-methyl-2-((2-(2-(2-((5-((4-(thieno[3,2-b]pyridin-7-yloxy)piperidin-1-yl)methyl)isoxazol-3-yl)oxy)ethoxy)ethoxy)ethoxy)methyl)piperazin-1-yl)-1-(4-(2-methylindolizine-6-carbonyl)piperazin-1-yl)ethan-1-one]",IC50 [2]: 300 to 1000 nM
< 300,< 25,"CN[C@@H](C)C(=O)N[C@H](C(=O)N1CCC[C@H]1c1nc(C(=O)c2cccc(OCCOCCOCCOCCOc3cc(CN4CCC(Oc5ccnc6ccsc56)CC4)on3)c2)cs1)C1CCCCC1 [Example 60, (S)-N-((S)-1-cyclohexyl-2-oxo-2-((S)-2-(4-(3-(2-(2-(2-(2-((5-((4-(thieno[3,2-b]pyridin-7-yloxy)piperidin-1-yl)methyl)isoxazol-3-yl)oxy)ethoxy)ethoxy)ethoxy)ethoxy)benzoyl)thiazol-2-yl)pyrrolidin-1-yl)ethyl)-2-(methylamino)propanamide]",
< 300,< 25,"CN[C@@H](C)C(=O)N[C@H](C(=O)N1CCN(C(=O)c2c(C(=O)NCCOCCOCCOc3cc(CN4CCC(Oc5ccnc6ccsc56)CC4)on3)c3cc(F)c(OC)cc3n2C)CC1)C1CCCCC1 [Example 13, 2-(4-((S)-2-cyclohexyl-2-((S)-2-(methylamino)propanamido)acetyl)piperazine-1-carbonyl)-5-fluoro-6-methoxy-1-methyl-N-(2-(2-(2-((5-((4-(thieno[3,2-b]pyridin-7-yloxy)piperidin-1-yl)methyl)isoxazol-3-yl)oxy)ethoxy)ethoxy)ethyl)-1H-indole-3-carboxamide]",
300 to 3000,25 to 50,"CN[C@@H](C)C(=O)N[C@H](C(=O)N1CCN(C(=O)c2c(C(=O)N(C)CCOCCOCCOc3cc(CN4CCC(Oc5ccnc6ccsc56)CC4)on3)c3cc(F)ccc3n2C)CC1)C(C)(C)O [Example 16, 5-fluoro-2-(4-((S)-3-hydroxy-3-methyl-2-((S)-2-(methylamino)propanamido)butanoyl)piperazine-1-carbonyl)-N,1-dimethyl-N-(2-(2-(2-((5-((4-(thieno[3,2-b]pyridin-7-yloxy)piperidin-1-yl)methyl)isoxazol-3-yl)oxy)ethoxy)ethoxy)ethyl)-1H-indole-3-carboxamide]",
,,"CN[C@@H](C)C(=O)N[C@H](C(=O)N1CCN(C(=O)c2cc3cc(F)c(F)cc3n2CCOCCOCCOc2cc(CN3CCC(Oc4ccnc5ccsc45)CC3)on2)CC1)C1CCCCC1 [Example 30, (S)-N-((S)-1-cyclohexyl-2-(4-(5,6-difluoro-1-(2-(2-(2-((5-((4-(thieno[3,2-b]pyridin-7-yloxy)piperidin-1-yl)methyl)isoxazol-3-yl)oxy)ethoxy)ethoxy)ethyl)-1H-indole-2-carbonyl)piperazin-1-yl)-2-oxoethyl)-2-(methylamino)propanamide]","inhibition at 3 µM ([1]; concentration of the test compound 3 μM, first symbol of cell, read-out: XIAP binding inhibition rate): > 25%"
3000 to 30000,,"CN[C@@H](C)C(=O)N[C@H](C(=O)N1CCN(C(=O)c2cc3cc(F)ccc3n2CC(=O)N(C)CCOc2cc(CN3CCC(Oc4ccnc5ccsc45)CC3)on2)[C@@H](C)C1)C1CCCCC1 [Example 50, (S)-N-((S)-1-cyclohexyl-2-((S)-4-(5-fluoro-1-(2-(methyl(2-((5-((4-(thieno[3,2-b]pyridin-7-yloxy)piperidin-1-yl)methyl)isoxazol-3-yl)oxy)ethyl)amino)-2-oxoethyl)-1H-indole-2-carbonyl)-3-methylpiperazin-1-yl)-2-oxoethyl)-2-(methylamino)propanamide]",
3000 to 30000,,"CN[C@@H](C)C(=O)N[C@H](C(=O)N1CCN(C(=O)c2cc3cc(F)ccc3n2CC(=O)N2C[C@@H](Oc3cc(CN4CCC(Oc5ccnc6ccsc56)CC4)on3)C[C@H]2CO)[C@@H](C)C1)C1CCCCC1 [Example 43, (S)-N-((S)-1-cyclohexyl-2-((S)-4-(5-fluoro-1-(2-((2S,4S)-2-(hydroxymethyl)-4-((5-((4-(thieno[3,2-b]pyridin-7-yloxy)piperidin-1-yl)methyl)isoxazol-3-yl)oxy)pyrrolidin-1-yl)-2-oxoethyl)-1H-indole-2-carbonyl)-3-methylpiperazin-1-yl)-2-oxoethyl)-2-(methylamino)propanamide]",
,25 to 50,"Cc1cc(Nc2ncnc3ccsc23)n(-c2ccccn2)n1 [Ref. example 25, N-(3-methyl-1-(pyridin-2-yl)-1H-pyrazol-5-yl)thieno[3,2-d]pyrimidin-4-amine]",
,< 25,"C=CCOc1cc(C(C)N2CCC(Oc3ccnc4cc(C)sc34)CC2)on1 (racemic) [Ref. example 7, 3-(allyloxy)-5-(1-(4-((2-methylthieno[3,2-b]pyridin-7-yl)oxy)piperidin-1-yl)ethyl)isoxazole (racemate)]",
,25 to 50,"O=S(=O)(c1ccccc1OC(F)(F)F)N1CCC(Oc2ncnc3ccsc23)CC1 [Ref. example 50, 4-((1-((2-(trifluoromethoxy)phenyl)sulfonyl)piperidin-4-yl)oxy)thieno[3,2-d]pyrimidine]",
,,"O=C1CCC(N2C(=O)c3cccc(OCCOCCOCCOCCOc4cc(CN5CCC(Oc6ccnc7ccsc67)CC5)on4)c3C2=O)C(=O)N1 (centres unmarked) [Example 67, 2-(2,6-dioxopiperidin-3-yl)-4-(2-(2-(2-(2-((5-((4-(thieno[3,2-b]pyridin-7-yloxy)piperidin-1-yl)methyl)isoxazol-3-yl)oxy)ethoxy)ethoxy)ethoxy)ethoxy)isoindoline-1,3-dione]",IC50 [2]: 100 to 300 nM
,50 to 75,"NC(=O)c1ccc(Nc2ncnc3ccsc23)c(OC2CCOC2)c1 (centres unmarked) [Ref. example 11, 3-((tetrahydrofuran-3-yl)oxy)-4-(thieno[3,2-d]pyrimidin-4-ylamino)benzamide]",
,≥ 75,"COC(=O)c1cc2ncnc(NCC3CC3)c2s1 [Ref. example 30, methyl 4-((cyclopropylmethyl)amino)thieno[3,2-d]pyrimidine-6-carboxylate]",
,50 to 75,"Cc1c(CN2CCC(Oc3ccnc4ccsc34)CC2)cnn1C [Ref. example 76, 7-((1-((1,5-dimethyl-1H-pyrazol-4-yl)methyl)piperidin-4-yl)oxy)thieno[3,2-b]pyridine]",
,25 to 50,"Cc1noc(C)c1CN1CCC(Oc2ccnc3ccsc23)CC1 [Ref. example 78, 3,5-dimethyl-4-((4-(thieno[3,2-b]pyridin-7-yloxy)piperidin-1-yl)methyl)isoxazole]",
,≥ 75,"Ic1cc2ncnc(OC3CCSCC3)c2s1 [Ref. example 35, 6-iodo-4-((tetrahydro-2H-thiopyran-4-yl)oxy)thieno[3,2-d]pyrimidine]",
,50 to 75,"O=C1NC(=O)c2cc(Nc3ncnc4ccsc34)ccc21 [Ref. example 27, 5-(thieno[3,2-d]pyrimidin-4-ylamino)isoindoline-1,3-dione]",
,< 25,"COc1ccccc1S(=O)(=O)N1CCC(Oc2ncnc3ccsc23)CC1 [Ref. example 46, 4-((1-((2-methoxyphenyl)sulfonyl)piperidin-4-yl)oxy)thieno[3,2-d]pyrimidine]",
,,"COCCOc1cc(CN2CCC(Oc3ccnc4ccsc34)CC2)on1 [Ref. example 85, 3-(2-methoxyethoxy)-5-((4-(thieno[3,2-b]pyridin-7-yloxy)piperidin-1-yl)methyl)isoxazole]",IC50 [2]: 100 to 300 nM
